Experiments:
KHK-C [1] = target: T1, KHK-C (Homo sapiens (Human), UniProt P50053); experiment: Assay B: KHK assay with 1 nM KHK-C, absorbance for 3 hours
From the text: (§1) A screening assay was developed for KHK involving a coupled enzyme system which used the product of the KHK reaction to drive an absorbance signal in kinetic mode. KHK takes fructose and ATP and converts it to F1P and ADP. ADP then serves as substrate to pyruvate kinase which converts PEP to pyruvate which is then reduced to lactate by lactate dehydrogenase with the concomitant oxidation of NADH to NAD+. The resulting depletion of NADH was monitored by measuring absorbance at 340 nm.
The reaction was initiated with addition of 0.2 mM ATP, and the absorbance was monitored for 3 hours at 340 nm. Reaction rates and IC50 values were calculated as described above.

KHK-C [2] = target: T1, KHK-C; experiment: Assay A: coupled-enzyme KHK absorbance assay, 10 nM KHK-C
From the text: as §1
(§2) Recombinant human KHK-C and KHK-A were expressed in E. coli as a His-tagged fusion protein and purified using Ni-NTA chromatography.
Compounds were prepared in DMSO as 4 mM stocks, diluted using an 11-point half-log scheme on a Biomek FX (Beckman Coulter), and incubated at rt for 30 minutes with the reaction mixture containing 50 mM HEPES, pH 7.4, 140 mM KCl, 3.5 mM MgCl2, 0.8 mM fructose, 2 mM TCEP, 0.8 mM PEP, 0.7 mM NADH, 0.01% Triton X-100, 30 U/mL pyruvate kinase-lactate dehydrogenase, and 10 nM purified KHK-C. The compound concentration in each well ranged from 1 nM to 100 μM. The reaction was initiated with the addition of 0.2 mM ATP. The absorbance was measured for 30 minutes on a SpectraMax reader (Molecular Devices) after ATP was added. The concentrations provided are based on the final mixture volume of 40 μL (referred to as the final concentration).
Controls: N8-(cyclopropylmethyl)-N4-(2-(methylthio)phenyl)-2-(piperazin-1-yl)pyrimido[5,4-d]pyrimidine-4,8-diamine at 2 μM final concentration was used as high percent effect (HPE) control, and 2.5% DMSO which was present in all reaction wells was used as zero percent effect (ZPE) control. Reaction rates were obtained for 300-1800 seconds time window in units of 1000*AU/min (absorbance unit per minute), and average values for ZPE and HPE controls from 16 wells each were calculated, AveZPE and AveHPE, respectively.
Percent inhibition (% inhibition) was calculated for each well using this equation:
For each compound tested, the IC50 provided is the average based on at least two separate assays conducted on separate days.

KHK-A = KHK-A (Homo sapiens (Human), UniProt P50053); experiment: Assay D: KHK assay with 1 nM human KHK-A; conditions: read-out: IC50 (nM) Assay D 1 nM KHK-A, 8 mM fructose, 0.2 mM ATP, avg of (#) runs
From the text: as §1
A fourth assay, referred to as Assay D, was performed using human KHK-A to assess the potency of compounds in inhibiting activity of this enzyme. […] Reaction rates and IC50 values were calculated as described above.

KHK-C [3] = target: T1, KHK-C; experiment: Assay C: KHK assay at high fructose (8 mM) and ATP (2 mM), 1 nM KHK-C; assay type: biochemical
From the text: as §1, §2
A third KHK assay, referred to as Assay C, was performed at high fructose and ATP concentrations, conditions that would be more consistent with physiological concentrations of the natural substrates of the KHK enzyme. Assay C was conducted as described above for Assay B except using 8 mM fructose and 2 mM ATP, and compound concentration range of 10 pM to 1 μM or 50 pM to 5 μM using half-log dilution scheme.

[4] = read-out: IC50 (nM) Assay B 1 nM KHK-C, 1 nM KHK-C, 0.2 mM ATP, 3 hours, avg of (#) runs
[5] = read-out: IC50 (nM) Assay A 10 nM KHK-C, 10 nM KHK-C, 0.8 mM fructose, 0.2 mM ATP, avg of (#) runs
[6] = read-out: IC50 (nM) Assay A (Table 4), 10 nM KHK-C, 0.8 mM fructose, 0.2 mM ATP, avg of (#) runs
[7] = read-out: IC50 (nM) Assay C 1 nM KHK-C, 8 mM fructose, 2 mM ATP, avg of (#) runs

T1 sequence (P50053 whole entry): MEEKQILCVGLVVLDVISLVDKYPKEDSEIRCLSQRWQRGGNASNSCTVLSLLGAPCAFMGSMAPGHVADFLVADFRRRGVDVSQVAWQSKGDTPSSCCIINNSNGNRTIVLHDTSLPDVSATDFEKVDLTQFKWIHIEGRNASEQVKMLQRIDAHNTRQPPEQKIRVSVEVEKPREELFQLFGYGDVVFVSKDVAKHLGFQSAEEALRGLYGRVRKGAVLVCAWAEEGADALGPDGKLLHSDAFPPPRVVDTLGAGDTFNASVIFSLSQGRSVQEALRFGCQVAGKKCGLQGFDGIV
Chain of KHK-A (P50053 other isoform, or with tags, fused parts or gaps): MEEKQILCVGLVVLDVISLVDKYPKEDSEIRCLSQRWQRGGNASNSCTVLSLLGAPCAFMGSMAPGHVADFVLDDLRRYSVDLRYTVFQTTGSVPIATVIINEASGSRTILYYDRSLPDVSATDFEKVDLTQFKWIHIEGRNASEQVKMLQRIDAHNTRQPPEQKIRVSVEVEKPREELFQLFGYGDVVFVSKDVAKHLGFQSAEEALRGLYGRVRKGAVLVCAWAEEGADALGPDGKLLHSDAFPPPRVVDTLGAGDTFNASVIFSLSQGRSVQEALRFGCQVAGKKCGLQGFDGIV

| IC50 (KHK-C [2]; [5]) [nM] | IC50 (KHK-C [2]; [6]) [nM] | SMILES | also measured |
| --- | --- | --- | --- |
| 17.8 | 17.8 | Cc1c(C(F)F)nc(N2CC[C@@H]2C)nc1N1C[C@@H]2[C@@H](CC(=O)O)[C@@H]2C1 [Example 43, [(1R,5S,6R)-3-{6-(difluoromethyl)-5-methyl-2-[(2S)-2-methylazetidin-1-yl]pyrimidin-4-yl}-3-azabicyclo[3.1.0]hex-6-yl]acetic acid] | IC50 (KHK-C [1]; [4]): 8 nM; IC50 (KHK-A): 48.6 nM |
| 11.1 | 11.1 | C[C@H]1CCN1c1nc(C(F)F)c(Cl)c(N2C[C@@H]3[C@@H](CC(=O)O)[C@@H]3C2)n1 [Example 40, [(1R,5S,6R)-3-{5-chloro-6-(difluoromethyl)-2-[(2S)-2-methylazetidin-1-yl]pyrimidin-4-yl}-3-azabicyclo[3.1.0]hex-6-yl]acetic acid] | IC50 (KHK-C [1]; [4]): 3.7 nM; IC50 (KHK-A): 37.9 nM |
| 9.7 | 9.7 | Cc1c(N2C[C@@H]3[C@@H](CC(=O)O)[C@@H]3C2)nc(N2C[C@@H](O)[C@@H]2C)nc1C(F)(F)F [Example 24, [(1R,5S,6R)-3-{2-[(2S,3R)-3-hydroxy-2-methylazetidin-1-yl]-5-methyl-6-(trifluoromethyl)pyrimidin-4-yl}-3-azabicyclo[3.1.0]hex-6-yl]acetic acid] | IC50 (KHK-C [3]; [7]): 11 nM; IC50 (KHK-C [1]; [4]): 3.3 nM; IC50 (KHK-A): 12.1 nM |
| – | 1760 | C[C@H]1[C@H](O)CN1c1cc(N2C[C@@H]3[C@@H](CC(=O)O)[C@@H]3C2)nc(C(F)(F)F)n1 [Example 32, [(1R,5S,6R)-3-{6-[(2S,3R)-3-hydroxy-2-methylazetidin-1-yl]-2-(trifluoromethyl)pyrimidin-4-yl}-3-azabicyclo[3.1.0]hex-6-yl]acetic acid] | – |
| – | 238 | C[C@H]1[C@H](O)CN1c1nc(C(F)F)c(C2CC2)c(N2C[C@@H]3[C@@H](CC(=O)O)[C@@H]3C2)n1 [Example 45, [(1R,5S,6R)-3-{5-cyclopropyl-6-(difluoromethyl)-2-[(2S,3R)-3-hydroxy-2-methylazetidin-1-yl]pyrimidin-4-yl}-3-azabicyclo[3.1.0]hex-6-yl]acetic acid] | – |
| – | 265 | COc1c(C(F)F)nc(N2C[C@@H](O)[C@@H]2C)nc1N1C[C@@H]2[C@@H](CC(=O)O)[C@@H]2C1 [Example 29, [(1R,5S,6R)-3-{6-(difluoromethyl)-2-[(2S,3R)-3-hydroxy-2-methylazetidin-1-yl]-5-methoxypyrimidin-4-yl}-3-azabicyclo[3.1.0]hex-6-yl]acetic acid] | – |
| – | 8.7 | C[C@@H]1N(c2nc(N3C[C@@H]4[C@@H](CC(=O)O)[C@@H]4C3)c(Cl)c(C(F)F)c2C#N)C[C@@]1(C)O [Example 21, [(1R,5S,6R)-3-{3-chloro-5-cyano-4-(difluoromethyl)-6-[(2S,3R)-3-hydroxy-2,3-dimethylazetidin-1-yl]pyridin-2-yl}-3-azabicyclo[3.1.0]hex-6-yl]acetic acid] | – |
| – | 7.2 | C[C@H]1CCN1c1nc(N2C[C@@H]3[C@@H](CC(=O)O)[C@@H]3C2)cc(C(F)F)c1C#N [Example 19, [(1R,5S,6R)-3-{5-cyano-4-(difluoromethyl)-6-[(2S)-2-methylazetidin-1-yl]pyridin-2-yl}-3-azabicyclo[3.1.0]hex-6-yl]acetic acid] | – |
| – | 331 | C[C@H]1[C@H](O)CN1c1cc(N2C[C@@H]3[C@@H](CC(=O)O)[C@@H]3C2)cc(C(C)(F)F)n1 [Example 34, [(1R,5S,6R)-3-{2-(1,1-difluoroethyl)-6-[(2S,3R)-3-hydroxy-2-methylazetidin-1-yl]pyridin-4-yl}-3-azabicyclo[3.1.0]hex-6-yl]acetic acid] | – |
| 6.8 | – | C[C@H]1[C@H](O)CN1c1nc(N2C[C@@H]3[C@@H](CC(=O)O)[C@@H]3C2)c(Cl)c(C(F)(F)F)c1C#N [Example 2, [(1R,5S,6R)-3-{3-chloro-5-cyano-6-[(2S,3R)-3-hydroxy-2-methylazetidin-1-yl]-4-(trifluoromethyl)pyridin-2-yl}-3-azabicyclo[3.1.0]hex-6-yl]acetic acid] | IC50 (KHK-C [3]; 8 mM fructose, 2 mM ATP, avg of (#) runs): 3.6 nM; IC50 (KHK-C [1]): 1.5 nM |
| – | 63.6 | Cc1c(N2C[C@@H]3[C@@H](CC(=O)O)[C@@H]3C2)nc(N2C[C@@](C)(O)[C@@H]2C)nc1C(F)(F)F [Example 26, [(1R,5S,6R)-3-{2-[(2S,3R)-3-hydroxy-2,3-dimethylazetidin-1-yl]-5-methyl-6-(trifluoromethyl)pyrimidin-4-yl}-3-azabicyclo[3.1.0]hex-6-yl]acetic acid] | – |
| – | 11.6 | C[C@H]1C[C@H](O)CN1c1nc(N2C[C@@H]3[C@@H](CC(=O)O)[C@@H]3C2)cc(C(F)(F)F)c1C#N [Example 23, [(1R,5S,6R)-3-{5-cyano-6-[(2S,4S)-4-hydroxy-2-methylpyrrolidin-1-yl]-4-(trifluoromethyl)pyridin-2-yl}-3-azabicyclo[3.1.0]hex-6-yl]acetic acid] | – |
| – | 120 | C[C@H]1CCCN1c1nc(N2C[C@@H]3[C@@H](CC(=O)O)[C@@H]3C2)cc(C(F)(F)F)n1 [Example 28, [(1R,5S,6R)-3-{2-[(2S)-2-methylpyrrolidin-1-yl]-6-(trifluoromethyl)pyrimidin-4-yl}-3-azabicyclo[3.1.0]hex-6-yl]acetic acid] | – |
| 4.4 | 4.4 | C[C@H]1[C@H](O)CN1c1nc(N2C[C@@H]3[C@@H](CC(=O)O)[C@@H]3C2)c(F)c(C(C)(F)F)c1C#N [Example 50, [(1R,5S,6R)-3-{5-cyano-4-(1,1-difluoroethyl)-3-fluoro-6-[(2S,3R)-3-hydroxy-2-methylazetidin-1-yl]pyridin-2-yl}-3-azabicyclo[3.1.0]hex-6-yl]acetic acid] | IC50 (KHK-C [3]; [7]): 2.6 nM; IC50 (KHK-C [1]; [4]): 1.5 nM |
| – | 114 | Cc1c(N2C[C@@H]3[C@@H](CC(=O)O)[C@@H]3C2)nc(N2C[C@@H](O)[C@@H]2C)nc1C(C)(F)F [Example 33, [(1R,5S,6R)-3-{6-(1,1-difluoroethyl)-2-[(2S,3R)-3-hydroxy-2-methylazetidin-1-yl]-5-methylpyrimidin-4-yl}-3-azabicyclo[3.1.0]hex-6-yl]acetic acid] | – |
| 53.8 | – | CCc1c(N2C[C@@H]3[C@@H](CC(=O)O)[C@@H]3C2)nc(N2C[C@@H](O)[C@@H]2C)nc1C(F)(F)F [Example 8, [(1R,5S,6R)-3-{5-ethyl-2-[(2S,3R)-3-hydroxy-2-methylazetidin-1-yl]-6-(trifluoromethyl)pyrimidin-4-yl}-3-azabicyclo[3.1.0]hex-6-yl]acetic acid] | – |
| – | 82.5 | C[C@H]1[C@H](O)CN1c1nc(N2C[C@@H]3[C@@H](CCC(=O)O)[C@@H]3C2)cc(C(F)(F)F)c1C#N [Example 52, 3-[(1R,5S,6R)-3-{5-cyano-6-[(2S,3R)-3-hydroxy-2-methylazetidin-1-yl]-4-(trifluoromethyl)pyridin-2-yl}-3-azabicyclo[3.1.0]hex-6-yl]propanoic acid] | – |
| – | – | C[C@@H]1N(c2nc(N3C[C@@H]4[C@H](C3)[C@H]4CS(C)(=O)=O)cc(C(F)(F)F)n2)C[C@@]1(C)O [Example 9, (2S,3R)-2,3-dimethyl-1-[4-{(1R,5S,6s)-6-[(methylsulfonyl)methyl]-3-azabicyclo[3.1.0]hex-3-yl}-6-(trifluoromethyl)pyrimidin-2-yl]azetidin-3-ol] | IC50 (KHK-C [2]): 14400 nM |
| 8.8 | 8.8 | Cc1c(N2C[C@@H]3[C@@H](CC(=O)O)[C@@H]3C2)nc(N2CC[C@@H]2C)nc1C(F)(F)F [Example 42, [(1R,5S,6R)-3-{5-methyl-2-[(2S)-2-methylazetidin-1-yl]-6-(trifluoromethyl)pyrimidin-4-yl}-3-azabicyclo[3.1.0]hex-6-yl]acetic acid] | IC50 (KHK-C [1]; [4]): 2.4 nM; IC50 (KHK-A): 10.5 nM |
| 866 | – | C[C@H]1CCN1c1nc(N2C[C@@H]3[C@@H](Cc4nnn[nH]4)[C@@H]3C2)cc(C(F)(F)F)n1 [Example 11, (1R,5S,6R)-3-{2-[(2S)-2-methylazetidin-1-yl]-6-(trifluoromethyl)pyrimidin-4-yl}-6-(1H-tetrazol-5-ylmethyl)-3-azabicyclo[3.1.0]hexane] | – |
| – | 30 | N#Cc1c(C(F)(F)F)cc(N2C[C@@H]3[C@@H](CC(=O)O)[C@@H]3C2)nc1C1CCC1 [Example 31, {(1R,5S,6s)-3-[5-cyano-6-cyclobutyl-4-(trifluoromethyl)pyridin-2-yl]-3-azabicyclo[3.1.0]hex-6-yl}acetic acid] | – |
| – | 21.5 | N#Cc1c(C(F)(F)F)cc(N2C[C@@H]3[C@@H](CC(=O)O)[C@@H]3C2)nc1N1CCC1 [Example 46, {(1R,5S,6s)-3-[6-(azetidin-1-yl)-5-cyano-4-(trifluoromethyl)pyridin-2-yl]-3-azabicyclo[3.1.0]hex-6-yl}acetic acid] | – |
| – | 109 | C[C@H]1[C@H](O)CN1c1cc(N2C[C@@H]3[C@@H](CC(=O)O)[C@@H]3C2)cc(C(F)(F)F)n1 [Example 27, [(1R,5S,6R)-3-{2-[(2S,3R)-3-hydroxy-2-methylazetidin-1-yl]-6-(trifluoromethyl)pyridin-4-yl}-3-azabicyclo[3.1.0]hex-6-yl]acetic acid] | – |

Source: patent publication US10174007B2, “Substituted 3-azabicyclo[3.1.0]hexanes as ketohexokinase inhibitors” (Pfizer Inc., priority 2015, dated 2019)
